Laboratory results: patent publication US6916933B2, “4-pyridinyl-n-acyl-l-phenylalanines” (Hoffman-La Roche Inc., priority 1999, dated 2005)

How the values were obtained:
[1] = biological target: T1, VLA-4 (α4β1 integrin) binding to immobilized VCAM-1 (Homo sapiens, UniProt P05556+P13612); assay: VLA-4/VCAM-1 Screening Assay (solid-phase, dual antibody ELISA); conditions: Ramos cell-derived VLA-4, recombinant human VCAM-1 coated plates, 1 mM MnCl2
T1 construct: followed by 10 μl of Ramos cell-derived VLA-4; endogenous in cells; host or cells: Ramos cells (VLA-4 preparation derived from the cells)
T1 sequence (P13612 34-1032): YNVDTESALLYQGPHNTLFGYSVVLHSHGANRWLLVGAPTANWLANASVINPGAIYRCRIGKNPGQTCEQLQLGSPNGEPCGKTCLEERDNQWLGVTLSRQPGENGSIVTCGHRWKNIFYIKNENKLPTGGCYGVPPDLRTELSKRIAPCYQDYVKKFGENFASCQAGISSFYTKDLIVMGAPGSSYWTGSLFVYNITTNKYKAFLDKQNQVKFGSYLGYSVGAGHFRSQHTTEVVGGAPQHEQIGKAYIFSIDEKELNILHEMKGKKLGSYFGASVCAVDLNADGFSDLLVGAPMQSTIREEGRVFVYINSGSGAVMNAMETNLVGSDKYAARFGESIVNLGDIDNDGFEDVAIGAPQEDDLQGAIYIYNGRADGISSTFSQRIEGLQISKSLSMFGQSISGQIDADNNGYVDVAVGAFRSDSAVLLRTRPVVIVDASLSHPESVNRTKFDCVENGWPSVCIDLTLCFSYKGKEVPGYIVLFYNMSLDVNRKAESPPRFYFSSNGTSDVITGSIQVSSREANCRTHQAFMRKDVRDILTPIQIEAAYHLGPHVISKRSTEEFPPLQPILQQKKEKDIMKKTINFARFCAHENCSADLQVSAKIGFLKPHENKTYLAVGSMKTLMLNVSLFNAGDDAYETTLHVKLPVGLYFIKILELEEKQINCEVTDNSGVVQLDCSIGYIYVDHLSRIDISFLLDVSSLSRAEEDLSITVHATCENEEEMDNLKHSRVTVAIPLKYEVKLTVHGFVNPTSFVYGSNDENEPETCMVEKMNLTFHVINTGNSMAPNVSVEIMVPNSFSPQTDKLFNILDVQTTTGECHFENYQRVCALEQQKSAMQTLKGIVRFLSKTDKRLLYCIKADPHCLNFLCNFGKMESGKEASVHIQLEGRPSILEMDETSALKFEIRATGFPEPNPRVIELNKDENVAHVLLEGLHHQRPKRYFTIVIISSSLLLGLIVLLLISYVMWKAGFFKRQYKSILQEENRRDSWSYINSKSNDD
T1 sequence (P05556 21-798): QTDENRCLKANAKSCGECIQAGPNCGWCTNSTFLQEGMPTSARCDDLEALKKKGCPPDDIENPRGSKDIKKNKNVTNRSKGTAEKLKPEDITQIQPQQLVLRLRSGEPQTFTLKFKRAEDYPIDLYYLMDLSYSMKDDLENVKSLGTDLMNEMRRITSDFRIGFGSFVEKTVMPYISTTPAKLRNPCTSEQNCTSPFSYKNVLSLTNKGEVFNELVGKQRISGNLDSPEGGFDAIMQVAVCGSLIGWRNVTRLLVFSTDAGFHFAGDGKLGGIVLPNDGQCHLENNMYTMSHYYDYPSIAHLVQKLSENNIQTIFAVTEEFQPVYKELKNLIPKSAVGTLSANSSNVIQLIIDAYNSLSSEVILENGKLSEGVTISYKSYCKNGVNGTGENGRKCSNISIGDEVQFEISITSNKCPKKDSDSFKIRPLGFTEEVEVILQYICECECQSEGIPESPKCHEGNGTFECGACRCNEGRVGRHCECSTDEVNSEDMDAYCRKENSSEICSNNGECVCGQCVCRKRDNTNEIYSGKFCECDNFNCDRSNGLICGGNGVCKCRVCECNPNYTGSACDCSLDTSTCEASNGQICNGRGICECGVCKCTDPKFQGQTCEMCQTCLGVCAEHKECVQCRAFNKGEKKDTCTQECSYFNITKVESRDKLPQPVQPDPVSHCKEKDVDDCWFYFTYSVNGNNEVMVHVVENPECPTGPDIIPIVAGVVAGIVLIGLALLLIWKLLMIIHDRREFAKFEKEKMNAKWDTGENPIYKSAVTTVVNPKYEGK
Method: VLA-4/VCAM-1 Screening Assay
VLA-4 antagonist activity, defined as ability to compete for binding to immobilized VCAM-1, was quantitated using a solid-phase, dual antibody ELISA. VLA-4 (α4β1 integrin) bound to VCAM-1 was detected by a complex of anti-integrin β1 antibody: HRP-conjugated anti-mouse IgG: chromogenic substrate (K-Blue). Initially, this entailed coating 96 well plates (Nunc Maxisorp) with recombinant human VCAM-1 (0.4 μg in 100 μl PBS), sealing each plate and then allowing the plates to stand at 4° C. for ^˜18 hr. […] On the day of assay, all plates were washed twice with VCAM Assay Buffer (200 μl/well of 50 mM Tris-HCl, 100 mM NaCl, 1 mM MnCl2, 0.05% Tween 20; pH 7.4). Test compounds were dissolved in 100% DMSO and then diluted 1:20 in VCAM Assay Buffer supplemented with 1 mg/mL BSA (i.e., final DMSO=5%). A series of 1:4 dilutions were performed to achieve a concentration range of 0.005 nM-1.563 μM for each test compound. 100 μl per well of each dilution was added to the VCAM-coated plates, followed by 10 μl of Ramos cell-derived VLA-4. These plates were sequentially mixed on a platform shaker for 1 min, incubated for 2 hr at 37° C., and then washed four times with 200 μl/well VCAM Assay Buffer. 100 μl of mouse anti-human integrin β1 antibody was added to each well (0.6 μg/mL in VCAM Assay Buffer+1 mg/mL BSA) and allowed to incubate for 1 hr at 37° C. At the conclusion of this incubation period, all plates were washed four times with VCAM Assay Buffer (200 μl/well). A corresponding second antibody, HRP-conjugated goat anti-mouse IgG (100 μl per well @ 1:800 dilution in VCAM Assay Buffer+1 mg/mL BSA), was then added to each well, followed by a 1 hr incubation at room temperature and concluded by three washes (200 μl/well) with VCAM Assay Buffer. Color development was initiated by addition of 100 μl K-Blue per well (15 min incubation, room temp) and terminated by addition of 100 μl Red Stop Buffer per well. All plates were then read in a UV/V is spectrophotometer at 650 nM. Results were calculated as % inhibition of total binding (i.e., VLA-4+VCAM-1 in the absence of test compound).
The results are provided in the following Table I (A=IC50<1 nM, B=IC50<10 nM): […]

[2] = biological target: T2, cell-surface VLA-4 (α4β1 integrin) on Ramos cells binding to immobilized VCAM-1 (Homo sapiens, UniProt P05556+P13612); assay: Ramos (VLA-4)/VCAM-1 Cell-Based Screening Assay (cell adhesion); conditions: Calcein-AM labeled Ramos cells, VCAM-1 coated plates
T2 construct: Ramos cells bearing cell-surface VLA-4; endogenous in cells; host or cells: Ramos cells (VLA-4); VCAM-1 partner made in CHO cells
T2 sequence (P13612 34-1032): as the sequence (P13612 34-1032) above
T2 sequence (P05556 21-798): as the sequence (P05556 21-798) above
Method: Ramos (VLA-4)/VCAM-1 Cell-Based Screening Assay Protocol
Soluble recombinant human VCAM-1 (mixture of 5- and 7-Ig domain) was purified from CHO cell culture media by immunoaffinity chromatography and maintained in a solution containing 0.1 M Tris-glycine (pH 7.5), 0.1 M NaCl, 5 mM EDTA, 1 mM PMSF, […] NaN3 and 10 μg/mL leupeptin. Calcein-AM was purchased from Molecular Probes Inc.
VLA-4 (α4β1 integrin) antagonist activity, defined as ability to compete with cell-surface VLA-4 for binding to immobilized VCAM-1, was quantitated using a Ramos-VCAM-1 cell adhesion assay. Ramos cells bearing cell-surface VLA-4, were labeled with a fluorescent dye (Calcein-AM) and allowed to bind VCAM-1 in the presence or absence of test compounds. A reduction in fluorescence intensity associated with adherent cells (% inhibition) reflected competitive inhibition of VLA-4 mediated cell adhesion by the test compound.
Initially, this entailed coating 96 well plates (Nunc Maxisorp) with recombinant human VCAM-1 (100 ng in 100 μl PBS), sealing each plate and allowing the plates to stand at 4° C. for ≈18 hr. The VCAM-coated plates were subsequently washed twice with 0.05% Tween-20 in PBS, and then blocked for 1 hr (room temperature) with 200 μl of Blocking Buffer (1% BSA/0.02% thimerosal) to reduce non-specific binding. Following the incubation with Blocking Buffer, plates were inverted, blotted and the remaining buffer aspirated. Each plate was then washed with 300 μl PBS, inverted and the remaining PBS aspirated.
Test compounds were dissolved in 100% DMSO and then diluted 1:25 in VCAM Cell Adhesion Assay Buffer (4 mM CaCl2, 4 mM MgCl2 in 50 mM TRIS-HCl, pH 7.5) (final DMSO=4%). A series of eight 1:4 dilutions were performed for each compound (general concentration range of 1 nM-12,500 nM). 100 μl/well of each dilution was added to the VCAM-coated plates, followed by 100 μl of Ramos cells (200,000 cells/well in 1% BSA/PBS). Plates containing test compounds and Ramos cells were allowed to incubate for 45 min at room temperature, after which 165 μl/well PBS was added. Plates were inverted to remove non-adherent cells, blotted and 300 μL/well PBS added. Plates were again inverted, blotted and the remaining buffer gently aspirated. 100 μl Lysis Buffer (0.1% SDS in 50 mM TRIS-HCl, pH 8.5) was added to each well and agitated for 2 min on a rotary shaking platform. The plates were then read for fluorescence intensity on a Cytofluor 2300 (Millipore) fluorecence measurement system (excitation=485 nm, emission=530 nm).
The results are provided in the following Table II (A=IC50<100 nM, B=IC50<10000 nM, C=IC50<5,000 nM): […]

SMILES	IC50 [1]	IC50 [2]
COCCC1(C(=O)N[C@@H](Cc2ccc(-c3cc(Cl)cn(C)c3=O)cc2)C(=O)O)CCCC1 [Example 10, 4-(5-chloro-1-methyl-2-oxo-3-pyridinyl)-N-[[1-(2-methoxyethyl)cyclopentyl]carbonyl]-L-phenylalanine]	< 10 nM	< 10000 nM
Cc1cccc(Cl)c1C(=O)N[C@@H](Cc1ccc(-c2cc(Cl)cn(Cc3ccccc3)c2=O)cc1)C(=O)O [Example 15, 4-(1-Benzyl-5-chloro-2-oxo-3-pyridinyl)-N-[(2-chloro-6-methylphenyl)carbonyl]-L-phenylalanine]	< 10 nM	< 5000 nM
COCCC1(C(=O)N[C@@H](Cc2ccc(-c3cc(Cl)cn(Cc4ccccc4)c3=O)cc2)C(=O)O)CCCC1 [Example 17, 4-(1-Benzyl-5-chloro-2-oxo-3-pyridinyl)-N-[[1-(2-methoxyethyl)cyclopentyl]carbonyl]-L-phenylalanine]	< 10 nM	–

Further lines, results first:

IC50 [1]	IC50 [2]	SMILES
< 1 nM	< 10000 nM	Cc1cccc(Cl)c1C(=O)N[C@@H](Cc1ccc(-c2cc(Cl)cn(C)c2=O)cc1)C(=O)O [Example 8, N-[(2-chloro-6-methylphenyl)carbonyl]-4-(5-chloro-1-methyl-2-oxo-3-pyridinyl)-L-phenylalanine]
< 1 nM	< 10000 nM	COc1ccc(Br)c(C(=O)N[C@@H](Cc2ccc(-c3cccn(C)c3=O)cc2)C(=O)O)c1 [Example 24, N-[(2-bromo-5-methoxyphenyl)carbonyl]-4-(1-methyl-2-oxo-3-pyridinyl)-L-phenylalanine]
< 1 nM	< 5000 nM	COc1ccc(Br)c(C(=O)N[C@@H](Cc2ccc(-c3cc(Br)cn(C)c3=O)cc2)C(=O)O)c1 [Example 28, N-[(2-bromo-5-methoxyphenyl)carbonyl]-4-(5-bromo-1-methyl-2-oxo-3-pyridinyl)-L-phenylalanine]
